This assay has as its target T1, human TRPM8 (Homo sapiens, UniProt Q7Z2W7).
T1 construct: expressed in transfected cells; host or cells: Chinese hamster ovary (CHO) cells, T-REx tetracycline-inducible system, co-transfected with aequorin
The assay is described as follows: Luminescence readout assay for measuring intracellular calcium, icilin activation. It counts as cell-based. Particulars: CHO cells expressing human TRPM8, aequorin luminescence, 1 μM icilin activation; read-out: hTRPM8 IC50. The method, boiled down:
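The read-out was luminescence reporting intracellular calcium, recorded by a CCD-based luminometer. Compounds were preincubated for 2.5 min before agonist challenge with 1 μM icilin. Human TRPM8 was expressed in a stable T-REx CHO line, induced with 0.5 μg/mL tetracycline the day before.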

T1 sequence (Q7Z2W7 whole entry): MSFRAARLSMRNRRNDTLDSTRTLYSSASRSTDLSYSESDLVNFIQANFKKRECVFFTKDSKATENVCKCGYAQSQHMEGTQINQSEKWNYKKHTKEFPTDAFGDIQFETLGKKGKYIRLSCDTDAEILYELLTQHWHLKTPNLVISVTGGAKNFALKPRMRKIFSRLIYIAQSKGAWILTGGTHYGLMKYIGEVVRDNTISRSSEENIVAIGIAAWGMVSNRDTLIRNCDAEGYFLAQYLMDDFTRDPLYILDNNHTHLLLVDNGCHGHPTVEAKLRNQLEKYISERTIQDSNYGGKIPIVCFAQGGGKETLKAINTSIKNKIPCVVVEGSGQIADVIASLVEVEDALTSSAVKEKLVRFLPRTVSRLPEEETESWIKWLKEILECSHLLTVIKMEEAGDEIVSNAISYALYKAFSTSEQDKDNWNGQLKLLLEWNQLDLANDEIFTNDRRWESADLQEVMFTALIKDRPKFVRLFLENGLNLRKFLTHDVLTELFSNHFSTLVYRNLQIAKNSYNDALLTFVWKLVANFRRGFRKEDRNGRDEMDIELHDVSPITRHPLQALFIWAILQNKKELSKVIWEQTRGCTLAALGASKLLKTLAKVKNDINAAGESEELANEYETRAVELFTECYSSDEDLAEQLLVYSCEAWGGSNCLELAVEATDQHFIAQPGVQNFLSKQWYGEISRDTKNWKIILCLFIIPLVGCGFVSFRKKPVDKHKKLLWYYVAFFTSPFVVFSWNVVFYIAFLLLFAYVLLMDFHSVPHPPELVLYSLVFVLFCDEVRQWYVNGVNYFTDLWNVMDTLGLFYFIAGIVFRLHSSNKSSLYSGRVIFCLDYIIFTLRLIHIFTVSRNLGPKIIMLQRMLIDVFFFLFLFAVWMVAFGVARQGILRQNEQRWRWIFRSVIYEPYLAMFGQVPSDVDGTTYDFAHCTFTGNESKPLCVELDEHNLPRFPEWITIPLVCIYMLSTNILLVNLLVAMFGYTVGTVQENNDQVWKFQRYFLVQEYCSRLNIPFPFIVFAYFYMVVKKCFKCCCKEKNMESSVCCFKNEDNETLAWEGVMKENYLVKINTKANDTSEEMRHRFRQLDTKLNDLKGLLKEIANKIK

Take `O=C(N[C@@H](c1ccc(OC(F)(F)F)c(F)c1)c1ncccc1F)c1c[nH]c(=O)c(Cl)c1` [Example 401, (S)-5-chloro-N-((3-fluoro-4-(trifluoromethoxy)phenyl)(3-fluoropyridin-2-yl)methyl)-6-oxo-1,6-dihydropyridine-3-carboxamide]: the IC50 (usually the concentration that inhibits the measured activity by half) amounted to 12.8 nM.
In the case of `O=C(N[C@@H](c1ccc(C(F)(F)F)cc1)c1ncccc1C(F)(F)F)c1cnc(O)nc1` [Example 266, (S)-2-Hydroxy-N-((4-(trifluoromethyl)phenyl)(3-(trifluoro-methyl)pyridin-2-yl)methyl)pyrimidine-5-carboxamide] it was 223 nM; in that of `O=C(N[C@@H](c1ccc(OC(F)(F)F)c(F)c1)c1ccc(F)cn1)c1ccc(=O)[nH]c1` [Example 292, (S)-N-((3-fluoro-4-(trifluoromethoxy)phenyl)(5-fluoropyridin-2-yl)methyl)-6-oxo-1,6-dihydropyridine-3-carboxamide], 52.4 nM.
For the molecule `COc1ccc([C@H](NC(=O)c2ccc(=O)n(C)c2)c2ncccc2F)cc1` [Example 343, (S)-N-((3-fluoropyridin-2-yl)(4-methoxyphenyl)methyl)-1-methyl-6-oxo-1,6-dihydropyridine-3-carboxamide], the IC50 turned out to be 1480 nM.
The value for `N#Cc1cc(C(=O)N[C@@H](c2ccc(C(F)(F)F)cc2)c2ncccc2F)c[nH]c1=O` [Example 277, (S)-5-Cyano-N-((3-fluoropyridin-2-yl)(4-(trifluoromethyl)-phenyl)methyl)-6-oxo-1,6-dihydropyridine-3-carboxamide] was 188 nM; that for `O=C(NC(c1ccc(OC(F)(F)F)c(F)c1)c1c(F)cccc1F)c1ccc(=O)[nH]c1` (centres unmarked) [Example 418, N-((2,6-difluorophenyl)(3-fluoro-4-(trifluoromethoxy)phenyl)methyl)-6-oxo-1,6-dihydropyridine-3-carboxamide] was 65 nM; that for `O=C(N[C@@H](c1ccc(OC(F)(F)F)c(F)c1)c1ncccc1F)c1ccc(=O)n(C[C@@H](O)C(F)(F)F)c1` [Example 409, N-((S)-(3-fluoro-4-(trifluoromethoxy)phenyl)(3-fluoropyridin-2-yl)methyl)-6-oxo-1-((R)-3,3,3-trifluoro-2-hydroxypropyl)-1,6-dihydropyridine-3-carboxamide] was 89.2 nM.
For the molecule `O=C(N[C@@H](c1ccc(C(F)(F)F)cc1)c1ncccc1C(F)(F)F)c1c[nH]c2ncncc12` [Example 45, (S)-N-((4-(trifluoromethyl)phenyl)(3-(trifluoromethyl)pyridin-2-yl)methyl)-7H-pyrrolo[2,3-d]pyrimidine-5-carboxamide], the IC50 was 63.5 nM.
The value for `O=C(N[C@@H](c1ccc(OC(F)(F)F)c(F)c1)c1ncccc1C(F)(F)F)c1ccc(=O)[nH]c1` [Example 383, (S)-N-((3-fluoro-4-(tritluoromethoxy)phenyl)(3-(trifluoromethyl)pyridin-2-yl)methyl)-6-oxo-1,6-dihydropyridine-3-carboxamide] was 7.9 nM; that for `Cc1cccnc1[C@@H](NC(=O)c1ccc(-c2nc(=O)o[nH]2)cc1)c1ccc(C(F)(F)F)cc1` [Example 323, (S)-N-((3-methylpyridin-2-yl)(4-(trifluoromethyl)phenyl)methyl)-4-(5-oxo-2,5-dihydro-1,2,4-oxadiazol-3-yl)benzamide] was 36.7 nM.
The value for `CC(C)c1ccc(C(=O)N[C@@H](c2ccc(C(F)(F)F)cc2)c2ncccc2C(F)(F)F)cc1` [Example 127, (S)-4-isopropyl-N-((4-(trifluoromethyl)phenyl)(3-(trifluoromethyl)pyridin-2-yl)methyl)benzamide] was 584 nM.
The value for `O=C(N[C@@H](c1ccc(OC(F)(F)F)c(F)c1)c1ccccn1)c1ccc2[nH]cnc2c1` [Example 393, (S)-N-((3-fluoro-4-(trifluoromethoxy)phenyl)(pyridin-2-yl)methyl)-1H-benzo[d]imidazole-5-carboxamide] was 6.1 nM; that for `COc1cnccc1C(=O)N[C@@H](c1ccc(C(F)(F)F)cc1)c1ncccc1C(F)(F)F` [Example 48, (S)-3-methoxy-N-((4-(trifluoromethyl)phenyl)(3-(trifluoromethyl)pyridin-2-yl)methyl)isonicotinamide] was 21.5 nM.
With `Cc1ncncc1C(=O)N[C@@H](c1ccc(C(F)(F)F)cc1)c1ncccc1C(F)(F)F` [Example 60, (S)-4-methyl-N-((4-(trifluoromethyl)phenyl)(3-(trifluoromethyl)pyridin-2-yl)methyl)pyrimidine-5-carboxamide], the IC50 was 78.4 nM.
In the case of `O=C(N[C@@H](c1ccc(OC(F)(F)F)c(F)c1)c1ncccc1C(F)(F)F)c1ccc2oc(=O)[nH]c2c1` [Example 385, (S)-N-((3-fluoro-4-(trifluoromethoxy)phenyl)(3-(trifluoromethyl)pyridin-2-yl)methyl)-2-oxo-2,3-dihydrobenzo[d]oxazole-5-carboxamide] it was 6.7 nM; in that of `Cc1cc(C)n2nc(C(=O)N[C@@H](c3ccc(C(F)(F)F)cc3)c3ncccc3C(F)(F)F)cc2n1` [Example 149, (S)-5,7-dimethyl-N-((4-(trifluoromethyl)phenyl)(3-(trifluoromethyl)pyridin-2-yl)methyl)pyrazolo[1,5-a]pyrimidine-2-carboxamide], 398 nM; in that of `C[C@@H](O)Cn1cc(C(=O)N[C@@H](c2ccc(C(F)(F)F)cc2)c2ncccc2F)ccc1=O` [Example 301, N-((S)-(3-fluoropyridin-2-yl)(4-(trifluoromethyl)phenyl)methyl)-1-((R)-2-hydroxypropyl)-6-oxo-1,6-dihydropyridine-3-carboxamide], 41.7 nM.
In the case of `O=C(N[C@@H](c1ccc(C(F)(F)F)c(F)c1)c1ncccc1C(F)(F)F)[C@H]1CCCO1` [Example 123, (R)-N-((S)-(3-fluoro-4-(trifluoromethyl)phenyl)(3-(trifluoromethyl)pyridin-2-yl)methyl)THF-2-carboxamide] it was 149 nM.
In the case of `O=C(N[C@@H](c1cccc(Cl)c1)c1ncccc1C(F)(F)F)c1ccc2cccnc2c1` [Example 13, (S)-N-((3-chlorophenyl)(3-(trifluoromethyl)pyridin-2-yl)methyl)quinoline-7-carboxamide] it was 83.3 nM.
With `O=C(N[C@@H](c1ccc(C(F)(F)F)cc1)c1ncccc1C(F)(F)F)c1ccc(=O)[nH]n1` [Example 150, (S)-6-oxo-N-((4-(trifluoromethyl)phenyl)(3-(trifluoromethyl)pyridin-2-yl)methyl)-1,6-dihydropyridazine-3-carboxamide], the IC50 was 178 nM.
The value for `Cc1cc(F)cc([C@H](NC(=O)c2ccc(=O)n(C)c2)c2ncccc2F)c1` [Example 326, (S)-N-((3-fluoro-5-methylphenyl)(3-fluoropyridin-2-yl)methyl)-1-methyl-6-oxo-1,6-dihydropyridine-3-carboxamide] was 3210 nM; that for `O=C(N[C@@H](c1ccc(C(F)(F)F)cc1)c1ncccc1C(F)(F)F)c1cccc(F)c1` [Example 227, (S)-3-fluoro-N-((4-(trifluoromethyl)phenyl)(3-(trifluoromethyl)pyridin-2-yl)methyl)benzamide] was 41.4 nM; that for `O=C1Cc2ccc(C(=O)N[C@@H](c3ccc(OC(F)(F)F)cc3)c3ncccc3F)cc2N1` [Example 90, (S)-N-((3-fluoropyridin-2-yl)(4-(trifluoromethoxy)phenyl)methyl)-2-oxoindoline-6-carboxamide] was 6.2 nM.

Source of the values: patent US8710043B2, “TRPM8 antagonists and their use in treatments” (Amgen Inc., priority 2011, dated 2014).
